According to ChEMBL document CHEMBL1255275, “Drug-regulated expression of Plasmodium falciparum P-glycoprotein homologue 1: a putative role for nuclear receptors” (Antimicrob Agents Chemother, 2008):
Activity calls are given as the source filed them. The rule behind the calls is not given here.

Columns and labels:
Plasmodium falciparum [1] = assay: Increase in Pgh1 expression in chloroquine-resistant Plasmodium falciparum R1H6/2 by Western blot relative to untreated control; assay type: functional
Plasmodium falciparum [2] = assay: Increase in Pgh1 expression in chloroquine-sensitive Plasmodium falciparum K1AM by Western blot relative to untreated control; assay type: functional
Plasmodium falciparum [3] = assay: Increase in Pgh1 expression chloroquine-sensitive Plasmodium falciparum K1Hf by Western blot relative to untreated control; assay type: functional
Plasmodium falciparum [4] = assay: Increase in PfCRT expression in chloroquine-resistant Plasmodium falciparum R1H6/2 by Western blot relative to untreated control; assay type: functional, organism-based
Plasmodium falciparum [5] = assay: Increase in PfCRT expression in chloroquine-sensitive Plasmodium falciparum K1AM by Western blot relative to untreated control; assay type: functional, organism-based
Plasmodium falciparum [6] = assay: Increase in PfCRT expression chloroquine-sensitive Plasmodium falciparum K1Hf by Western blot relative to untreated control; assay type: functional, organism-based

CCC1(c2ccccc2)C(=O)NC(=O)NC1=O [PHENOBARBITAL]
fold change (FC) (Plasmodium falciparum [1]): 6.4 | fold change (FC) (Plasmodium falciparum [2]): 4.7 | fold change (FC) (Plasmodium falciparum [3]): 5.4 | Activity (Plasmodium falciparum [4]): inactive | Activity (Plasmodium falciparum [5]): inactive | Activity (Plasmodium falciparum [6]): inactive
